Laboratory results as given in the NIST ThermoML archive (doi:10.1016/j.jct.2015.08.035).
± gives the expanded uncertainty stated by the source.

Columns and labels:
[1] = Crystal; DTA
[2] = Molar enthalpy of transition or fusion; details: Crystal; DSC

Normal melting temperature [1]: 82.07 ± 1.1 °C
Molar enthalpy of transition or fusion [2]: 4.47 ± 0.263 kcal/mol
Compound: CC1=C(O)C(=O)C(C)O1 (configuration not stated) [4-hydroxy-2,5-dimethyl-3(2H)-furanone]
